These results are taken from publication doi:10.1101/404459v1 (biorxiv, 2018).

Data set [1] addresses T1, PbCLK3 (Plasmodium berghei, UniProt A0A509AKE9).
T1 sequence (A0A509AKE9 1-706): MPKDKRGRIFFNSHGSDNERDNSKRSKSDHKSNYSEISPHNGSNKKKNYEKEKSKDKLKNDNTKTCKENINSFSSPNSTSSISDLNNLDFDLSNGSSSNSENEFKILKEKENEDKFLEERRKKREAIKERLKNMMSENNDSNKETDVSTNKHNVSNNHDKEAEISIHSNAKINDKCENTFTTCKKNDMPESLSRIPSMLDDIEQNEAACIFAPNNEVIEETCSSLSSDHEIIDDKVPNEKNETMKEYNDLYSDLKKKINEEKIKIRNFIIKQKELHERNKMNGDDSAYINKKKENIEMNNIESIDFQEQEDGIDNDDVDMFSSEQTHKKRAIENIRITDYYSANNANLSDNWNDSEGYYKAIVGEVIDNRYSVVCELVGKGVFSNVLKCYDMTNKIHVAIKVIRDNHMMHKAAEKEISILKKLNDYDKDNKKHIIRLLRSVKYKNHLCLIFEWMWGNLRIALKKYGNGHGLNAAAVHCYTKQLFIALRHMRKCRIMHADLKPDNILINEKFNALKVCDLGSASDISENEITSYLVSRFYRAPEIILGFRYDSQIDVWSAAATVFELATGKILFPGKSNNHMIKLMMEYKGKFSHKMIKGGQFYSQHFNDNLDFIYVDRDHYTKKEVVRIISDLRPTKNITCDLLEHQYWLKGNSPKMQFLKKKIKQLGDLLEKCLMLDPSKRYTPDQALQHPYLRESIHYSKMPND
The experiment in a line: TR-FRET kinase assay. Conditions: recombinant kinase. The class given is biochemical.

In data set [2] the target is PvCLK3. Briefly: TR-FRET kinase assay. The data set is classed as biochemical, Plasmodium vivax. Conditions: recombinant kinase.
Substrate in data set [3]: Nc1ncnc2c1ncn2[C@@H]1O[C@H](COP(=O)(O)OP(=O)(O)OP(=O)(O)O)[C@@H](O)[C@H]1O
The experiment in a line: purified protein. Conditions: co-substrate ULight-CREBtide; pH […]; […] MgCl2; room temperature.

In general, pIC50 refers to the negative decadic logarithm of the IC50, by convention in mol/L. On to `CCN(CC)Cc1ccc(OC)c(-c2cc3c(-c4ccc(C(=O)O)c(C(C)C)c4)ccnc3[nH]2)c1` [TCMDC-135051], for which the figures for the negative-log IC50 (pIC50) in data set [1] and in data set [2] were 7.47 ± 0.12 and 7.86 ± 0.10, respectively.

B1: PfCLK1 (Plasmodium falciparum 3D7) (protein)
chain: DDEIVHFSWKKGMLLNNAFLVIRKMGDGTFGRVLLCQHIDNKKYYAVKVVRNIKKYTRSAKIEADILKKIQNDDINNNNIVKYHGKFMYYDHMCLIFEPLGPSLYEIITRNNYNGFHIEDIKLYCIEILKALNYLRKMSLTHTDLKPENILLDDPYFEKSLITVRRVTDGKKIQIYRTKSTGIKLIDFGCATFKSDYHGSIINTRQYRAPEVILNLGWDVSSDMWSFGCVLAELYTGSLLFRTHEHMEHLAMMESIIQPIPKNMLYEATKTNGSKYVNKDELKLAWPENASSINSIKHVKKCLPLYKIIKHELFCDFLYSILQIDPTLRPSPAELLKHKFLE
As usually defined, the Km is the substrate concentration at which the rate is half of its maximum. As to B1, in data set [3], the Km worked out at 30 µM.
